Data reported in patent publication US20090054403A1, “Treatment of Post-Traumatic Stress Disorder” (priority 2007, published 2009).

Columns and labels:
[1] = molecular target: all other receptors examined; test: Radioligand filtration binding (Example 19)
Procedure: (§1) The affinity of nepicastat was determined in the bindings assays outlined in FIG. 97. Standard radioligand filtration binding methods were used. Competition binding data were analyzed by iterative curve fitting to a four parameter logistic equation. Hill coefficients and IC50 were obtained directly. pKi (−log of Ki) of competing ligands were calculated from IC50 values using the Cheng-Prusoff equation.

alpha1 receptors = test: Radioligand filtration binding (Example 19)
Procedure: as §1

[2] = test system: sympathetically mediated pressor response; test: Pressor response to pre-ganglionic nerve stimulation in pithed SHR; type: in vivo, spontaneously hypertensive rats (SHR)
Procedure: Hemodynamic study in SHR. Male SHR (15-16 week old) were used in the study. The animals were lightly anesthetized with ether and the left femoral artery and vein were catheterized for measurement of blood pressure and drug administration, respectively. The animals were placed in restrainers and allowed to recover for 30-40 min. […] The animals were then anesthetized with pentobarbital, placed on a heating pad (37° C.) and ventilated with a Harvard rodent ventilator. After administration of atropine (1 mg/kg, iv) and tubocurarine (1 mg/kg, iv), the animals were pithed through the orbit of the eye with a stainless steel rod. The […] rod was stimulated electrically with 1 ms pulses of 80V at different frequencies (0.15, 0.45, 1.5, 5, 15 Hz) to obtain frequency-pressor response curves.

[3] = test system: blood pressure, heart rate, motor activity; test: Radio-telemetry blood pressure, heart rate, motor activity in normotensive rats, 7 days; type: in vivo, normotensive Wistar rats (Crl:COBS(WI)BR)
Procedure: Male Crl:COBS(WI)BR rats of 15 weeks old were used. Twenty-four rats were chronically implanted with telemetry implants (TA11PA-C40, Data Sciences, Inc., St. Paul, Minn.) for measurement of arterial blood pressure, heart rate and motor activity. The rat was anesthetized with pentobarbital sodium (60 mg/kg, ip) and its abdomen shaved. Under aseptic conditions, an incision was made on midline. The abdominal aorta was exposed, and cannulated with the catheter of a telemetry transmitter unit. After the transmitter was sutured to the abdominal musculature, the skin was closed. Each rat was allowed to recover for at least 2 weeks before being subjected to drug administration. Three days prior to the start of the experiment, the rats were randomly divided into 4 treatment groups: Vehicle (p.o.), Hydralazine (10 mg/kg, p.o.), nepicastat (30 mg/kg, p.o.), nepicastat (100 mg/kg, p.o.).
Systolic blood pressure (SBP), diastolic blood pressure (DBP), mean blood pressure (MBP), heart rate (HR), and motor activity (MA) were monitored. After the pre-dose values for these parameters were established, respective groups of rats received a 7 day daily treatment of vehicle, nepicastat or hydralazine.
Both nepicastat and hydralazine were prepared in water with traces of Tween 80. All doses were given orally to the rat in 10 ml/kg and were expressed as free base equivalents.
A computerized data collection system was used to continuously collect data on SBP, DBP, MBP, HR, and MA. Data on each rat were collected every 5 min. for 10 sec. These were then averaged hourly and standard errors of the mean (SE) calculated. In this report, only data on MBP, HR and MA were presented. […] Body weights were recorded daily.

[4] = test system: dopamine and norepinephrine levels; test: 24 hour time course of tissue catecholamines in SHR after a single oral dose; type: in vivo, spontaneously hypertensive rats
Procedure: The purpose of this study was to determine the 24 hours time course of the effects of nepicastat (10 mg/kg) on dopamine and norepinephrine levels in the mesenteric artery following a single oral dose in spontaneously hypertensive rats. Catecholamine levels were measured at 1, 2, 4, 6, 8, 12, 16, and 24 hours after a single oral administration of either nepicastat (10 mg/kg) or vehicle (dH2O; 10 ml/kg).
Sixteen-17 week old, male spontaneous hypertensive rats (SHR) rats weighing 300-400 grams were allowed food and water ad libitum. Animals were weighed and randomly assigned, the afternoon before the study, to one of the following treatment groups (n=9 per group): […] of vehicle (10 ml/kg) to be sacrificed at 1, 2, 4, 6, 8, 12, 16, or 24 hours. nepicastat was synthesized as the hydrochloride salt by the Institute of Organic Chemistry, Syntex Discovery Research and obtained from Syntex Central Compound Inventory. nepicastat was dissolved in vehicle (dH2O) to yield an oral dose that could be administered in repeated volumes of 10 ml/kg. All doses of nepicastat were administered as free base equivalents and prepared the morning of administration. Animals were dosed every […] the morning of sacrifice. At 1, 2, 4, 6, 8, 12, 16 and 24 hours following administration, 9 treated animals and 9 vehicle animals were anesthetized with halothane, decapitated, and the left ventricle and mesenteric artery were rapidly harvested and weighed. The mesenteric artery was put in 0.5 ml of 0.4M perchloric acid in a centrifuge tube and the left ventricle put into an empty cryotube. Both tissues were immediately frozen in liquid nitrogen and stored at −70° C. Mesenteric artery catecholamine levels were determined using HPLC with electrochemical detection. At the time of decapitation, plasma samples were taken by draining blood from the carcass into a tube containing heparin, and centrifuging at 4° C.
Each treatment group was compared to vehicle at each time point. A two way analysis of variance (ANOVA) with effects TRT, HARVEST and their interaction was performed. A one way ANOVA with factor TRT was performed for each harvest time.

mice [5] = test: Clinical observations, behavioral tests and rectal temperature after single oral dose; type: in vivo; details: 30, 100, 300 mg/kg single oral, from 60 min
Procedure: A single oral dose of vehicle or Nepicastat formulation was administered by gavage to each mouse using a rodent intubator. The oral route was selected because it is a proposed clinical route of administration. Dose volumes were calculated on the basis of individual body weights recorded before dosing (body weight data are not tabulated in this report). Food and water were withheld from the mice 2.5 to 3.5 hours before dosing, instead of 1.5 hours as specified in the protocol.
Clinical observations were recorded before dosing. Beginning 60 minutes after dosing, mice in each treatment group were evaluated in groups of up to 3 over an interval of approximately 10 minutes each for clinical observations and protocol-specified behavioral tests.^1 One mouse in the 30-mg/kg group and 1 mouse in the 100-mg/kg group died after dosing and they were removed from the study. Surviving mice were euthanatized and removed from the study at the end of the observation/testing period.
Mice in groups of 6 males each were administered single oral doses of 0 (vehicle), 30, 100, or 300 mg/kg of nepicastat by gavage. Clinical observations and behavioral tests were initiated 60 minutes after administration of the test formulation. At the end of the observation period, all surviving mice were euthanatized and removed from the study.

mice [6] = test: Gross motor behavior and locomotor activity after acute dosing; type: in vivo

## Cl.NCc1c[nH]c(=S)n1[C@H]1CCc2c(F)cc(F)cc2C1 [nepicastat, (S)-5-Aminomethyl-1-(5,7-difluoro-1,2,3,4-tetrahydronaphth-2-yl)-2,3-dihydro-2-thioxo-1H-imidazole hydrochloride]
[1]
  pKi: < 6.2
alpha1 receptors
  pKi: 6.9-6.7
[2]; 3 mg/kg p.o., 5 hours after dosing
  responses to preganglionic nerve stimulation: significantly attenuated the hypertensive and tachycardic responses
[2]; 5 h after oral dosing
  maximum shift of the frequency-pressor response curve: 5 fold
[3]; 30 mg/kg/d po, day 2 at hour 13
  peak decrease in blood pressure (peak hypotensive effect): −10 mmHg
[3]; 100 mg/kg po, 22 hr after dosing
  peak antihypertensive response on day 1: −11 mmHg
[3]; 100 mg/kg, day 2, 3 hours after dosing
  bradycardic response: −100 b/mm
[3]; nepicastat 30 and 100 mg/kg (day 1), hydralazine 10 mg/kg (throughout)
  effect on HR: did not consistently affect HR on day 1
[4]; 10 mg/kg oral, mesenteric artery
  duration of increase in dopamine/norepinephrine ratio: 12 h
[4]; 10 mg/kg single oral, 1-24 h
  dopamine vs vehicle, mesenteric artery: significantly (p<0.05) higher than those of vehicle at the 2 and 6 hr harvest times
  dopamine/norepinephrine ratio vs vehicle, mesenteric artery: significantly (p<0.05) greater than those of vehicle treated animals at the 1, 2, 4, 6 and 12 hour time points
  norepinephrine vs vehicle, mesenteric artery: significantly (p<0.05) lower than vehicle only at the 4 hr time point
[4]; 30 mg/kg oral, left ventricle
  duration of increase in dopamine/norepinephrine ratio: 24 h
Mice [5]
  clinical or gross behavior changes: No treatment-related clinical or gross behavior changes
  rectal body temperature vs vehicle-control: Lower body temperatures
Mice [6]; 1.0-30 mg/kg p.o., acute
  gross motor behavior: no significant effects on gross motor behavior
Mice [6]; 10-100 mg/kg i.p.
  locomotor activity: did not effect locomotor activity
